Assay [1] has as its target T1, HCV polymerase (NS5B) type 1b (Hepatitis C virus genotype 1b, UniProt P26663).
T1 construct: a region encoding NS5B (J Virol 1991 March, 65(3), 1105-13, 544 amino acids after deletion of 47 amino acids on the C-terminal); 6xHis (C); made in house; host or cells: Escherichia coli
The experiment in a line: Assay of enzyme (HCV polymerase) inhibitory activity, type 1b enzyme. Format: biochemical, HCV BK strain (type 1b). The conditions noted are these: HCV polymerase inhibitory activity IC50, 1b, type 1b enzyme. Summed up: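 His-tagged, C-terminally truncated NS5B (BK strain, 1b; 0.5 μg/ml) incubated with compound 60 min at 25 °C on 3′UTR-derived substrate RNA (5 μg/ml), 50 μM ATP/GTP/CTP, 2 μM UTP plus [3H]UTP, pH 7.5. Acid-precipitated RNA counted; IC50 from radioactivity with and without compound.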

Assay [2] concerns the target T2, HCV polymerase (NS5B) type 1a (Hepatitis C virus genotype 1a, UniProt P26664).
T2 construct: made in house; host or cells: Escherichia coli (by the 'similar method' of the 1b enzyme)
The experiment in a line: Assay of enzyme (HCV polymerase) inhibitory activity, type 1a enzyme. Format: biochemical, HCV type 1a (cloned from the blood of patients). The settings on record: HCV polymerase inhibitory activity IC50, 1a, type 1a enzyme. Summed up: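 His-tagged NS5B, C-terminal 47 residues deleted, type 1a at 1.5 μg/ml, with 5 μg/ml HCV 3′UTR substrate RNA, 50 μM ATP/GTP/CTP, 2 μM UTP plus [3H]UTP, pH 7.5 Tris, 5 mM MgCl2; 60 min at 25° C. TCA-precipitated RNA counted by scintillation; IC50 from radioactivity with vs. without compound.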

By IC50 is commonly meant the point on the concentration scale where inhibition reaches its midpoint. Low readings indicate greater potency, high ones weaker potency.

Consider `O=C(NCc1ccc(C2CC2)cc1)[C@H]1CN(c2nc3ncncc3s2)CCN1S(=O)(=O)c1ccc(OC(F)(F)F)cc1` [Example 976, (R)-4-thiazolo[4,5-d]pyrimidin-2-yl-1-(4-trifluoromethoxy-benzenesulfonyl)-piperazine-2-carboxylic acid 4-cyclopropyl-benzylamide], for which the IC50 in assay [1] and in assay [2] was below 100 nM in each case.
For the compound `O=C(NCc1ccc(OC(F)(F)F)cc1)[C@H]1CN(c2nn3ccc(=O)nc3s2)CCN1S(=O)(=O)c1ccc(OC(F)(F)F)cc1` [Example 977, (R)-4-(7-oxo-7H-[1,3,4]thiadiazolo[3,2-a]pyrimidin-2-yl)-1-(4-trifluoromethoxy-benzenesulfonyl)-piperazine-2-carboxylic acid 4-trifluoromethoxy-benzylamide], the IC50 in assay [1] and in assay [2] was below 100 nM throughout.
As to `CC(=O)c1sc(N2CCN(S(=O)(=O)c3ccc(OC(F)(F)F)cc3)[C@@H](C(=O)NCc3ccc(OC(F)(F)F)cc3)C2)nc1C` [Example 978, (R)-4-(5-acetyl-4-methyl-thiazol-2-yl)-1-(4-trifluoromethoxy-benzenesulfonyl)-piperazine-2-carboxylic acid 4-trifluoromethoxy-benzylamide], the half-inhibitory concentration (IC50) in assay [1] and in assay [2] was below 100 nM in each case.
Take `NC(=O)c1ncc2sc(N3CCN(S(=O)(=O)c4ccc(OC(F)(F)F)cc4)[C@@H](C(=O)NCc4ccc(OC(F)(F)F)cc4)C3)nc2n1` [Example 979, 2-[(R)-4-(4-trifluoromethoxy-benzenesulfonyl)-3-(4-trifluoromethoxy-benzylcarbamoyl)-piperazin-1-yl]-thiazolo[4,5-d]pyrimidine-5-carboxylic acid amide]: the IC50 in assay [1] and in assay [2] was below 100 nM throughout.
Take `Cc1nn(C)c2nc(N3CCN(S(=O)(=O)c4ccc(OC(F)(F)F)cc4)[C@@H](C(=O)NCc4ccc(OC(F)(F)F)cc4)C3)sc12` [Example 980, (R)-4-(1,3-dimethyl-1H-pyrazolo[3,4-d]thiazol-5-yl)-1-(4-trifluoromethoxy-benzenesulfonyl)-piperazine-2-carboxylic acid 4-trifluoromethoxy-benzylamide]: the half-inhibitory concentration (IC50) in assay [1] and in assay [2] was below 100 nM throughout.
With `O=C(NCc1ccc(OC(F)(F)F)cc1)[C@H]1CN(c2nc3nc(C(F)(F)F)ncc3s2)CCN1S(=O)(=O)c1ccc(C(F)(F)F)cc1` [Example 981, (R)-1-(4-trifluoromethyl-benzenesulfonyl)-4-(5-trifluoromethyl-thiazolo[4,5-d]pyrimidin-2-yl)-piperazine-2-carboxylic acid 4-trifluoromethoxy-benzylamide], the IC50 in assay [1] and in assay [2] was below 100 nM each time.
Take `Cc1nc(N)c2sc(N3CCN(S(=O)(=O)c4ccc(OC(F)(F)F)cc4)[C@@H](C(=O)NCc4ccc(OC(F)(F)F)cc4)C3)nc2n1` [Example 982, (R)-4-(7-amino-5-methyl-thiazolo[4,5-d]pyrimidin-2-yl)-1-(4-trifluoromethoxy-benzenesulfonyl)-piperazine-2-carboxylic acid 4-trifluoromethoxy-benzylamide]: the IC50 in assay [1] and in assay [2] was below 100 nM throughout.
Regarding `O=C(NCc1ccc(OC(F)(F)F)cc1)[C@H]1CN(c2nc3nc(C4CC4)ncc3s2)CCN1S(=O)(=O)c1ccc(C(F)(F)F)cc1` [Example 983, (R)-4-(5-cyclopropyl-thiazolo[4,5-d]pyrimidin-2-yl)-1-(4-trifluoromethyl-benzenesulfonyl)-piperazine-2-carboxylic acid 4-trifluoromethoxy-benzylamide], the half-maximal inhibitory concentration (IC50) in assay [1] and in assay [2] was below 100 nM each time.
Regarding `CC(C)c1ncc2sc(N3CCN(S(=O)(=O)c4ccc(OC(F)(F)F)cc4)[C@@H](C(=O)NCc4ccc(OC(F)(F)F)cc4)C3)nc2n1` [Example 984, (R)-4-(5-isopropyl-thiazolo[4,5-d]pyrimidin-2-yl)-1-(4-trifluoromethoxy-benzenesulfonyl)-piperazine-2-carboxylic acid 4-trifluoromethoxy-benzylamide], the IC50 in assay [1] and in assay [2] was below 100 nM throughout.
Turning to `O=C(NCc1ccc(OC(F)(F)F)cc1)[C@H]1CN(c2nc3c(Cl)nncc3s2)CCN1S(=O)(=O)c1ccc(OC(F)(F)F)cc1` [Example 985, (R)-4-(4-chloro-thiazolo[4,5-d]pyridazin-2-yl)-1-(4-trifluoromethoxy-benzenesulfonyl)-piperazine-2-carboxylic acid 4-trifluoromethoxy-benzylamide], the IC50 in assay [1] and in assay [2] was below 100 nM in each case.
Take `Cc1nnc2sc(N3CCN(S(=O)(=O)c4ccc(OC(F)(F)F)cc4)[C@@H](C(=O)NCc4ccc(OC(F)(F)F)cc4)C3)nn2c1=O` [Example 986, (R)-4-(3-methyl-4-oxo-4H-[1,3,4]thiadiazolo[2,3-c][1,2,4]triazin-7-yl)-1-(4-trifluoromethoxy-benzenesulfonyl)-piperazine-2-carboxylic acid 4-trifluoromethoxy-benzylamide]: the half-inhibitory concentration (IC50) in assay [1] and in assay [2] was below 100 nM in each case.
Regarding `O=C(NCc1ccc(OC(F)(F)F)cc1)[C@H]1CN(c2nc3nnncc3s2)CCN1S(=O)(=O)c1ccc(OC(F)(F)F)cc1` [Example 987, (R)-4-thiazolo[4,5-d][1,2,3]triazin-6-yl-1-(4-trifluoromethoxy-benzenesulfonyl)-piperazine-2-carboxylic acid 4-trifluoromethoxy-benzylamide], the IC50 in assay [1] and in assay [2] was below 100 nM each time.
With `O=C(CC(=O)N1CCN(S(=O)(=O)c2ccc(OC(F)(F)F)cc2)[C@@H](C(=O)NCc2ccc(OC(F)(F)F)cc2)C1)Nc1nnc(Br)s1` [Example 988, (R)-4-[2-(5-bromo-[1,3,4]thiadiazol-2-ylcarbamoyl)-acetyl]-1-(4-trifluoromethoxy-benzenesulfonyl)-piperazine-2-carboxylic acid 4-trifluoromethoxy-benzylamide], the IC50 in assay [1] and in assay [2] was above 1000 nM each time.
Regarding `O=C(NCc1cc2ccccn2c1)[C@H]1CN(c2nc3ncncc3s2)CCN1S(=O)(=O)c1ccc(OC(F)(F)F)cc1` [Example 989, (R)-4-thiazolo[4,5-d]pyrimidin-2-yl-1-(4-trifluoromethoxy-benzenesulfonyl)-piperazine-2-carboxylic acid (indolizin-2-ylmethyl)-amide], the half-inhibitory concentration (IC50) in assay [1] and in assay [2] was below 100 nM each time.
In the case of `CNC(=O)c1cc(=O)nc2sc(N3CCN(S(=O)(=O)c4ccc(OC(F)(F)F)cc4)[C@@H](C(=O)NCc4ccc(OC(F)(F)F)cc4)C3)nn12` [Example 990, 7-oxo-2-[(R)-4-(4-trifluoromethoxy-benzenesulfonyl)-3-(4-trifluoromethoxy-benzylcarbamoyl)-piperazin-1-yl]-7H-[1,3,4]thiadiazolo[3,2-a]pyrimidine-5-carboxylic acid methylamide], the IC50 in assay [1] and in assay [2] was below 100 nM in each case.
Regarding `CC(C)c1ncc2sc(N3CCN(S(=O)(=O)c4ccc(C(F)(F)F)cc4)[C@@H](C(=O)NCc4ccc(OC(F)(F)F)cc4)C3)nc2n1` [Example 991, (R)-4-(5-isopropyl-thiazolo[4,5-d]pyrimidin-2-yl)-1-(4-trifluoromethyl-benzenesulfonyl)-piperazine-2-carboxylic acid 4-trifluoromethoxy-benzylamide], the IC50 in assay [1] and in assay [2] was below 100 nM throughout.
For `O=C(NCc1ccc(OC(F)(F)F)cc1)[C@H]1CN(c2nc3nc(CC4CC4)ncc3s2)CCN1S(=O)(=O)c1ccc(OC(F)(F)F)cc1` [Example 992, (R)-4-(5-cyclopropylmethyl-thiazolo[4,5-d]pyrimidin-2-yl)-1-(4-trifluoromethoxy-benzenesulfonyl)-piperazine-2-carboxylic acid 4-trifluoromethoxy-benzylamide], the IC50 in assay [1] and in assay [2] was below 100 nM throughout.
As for `CCN(CC)c1nc2nc(Cl)nc(N3CCN(S(=O)(=O)c4ccc(OC(F)(F)F)cc4)[C@@H](C(=O)NCc4ccc(OC(F)(F)F)cc4)C3)c2s1` [Example 993, (R)-4-(5-chloro-2-diethylamino-thiazolo[4,5-d]pyrimidin-7-yl)-1-(4-trifluoromethoxy-benzenesulfonyl)-piperazine-2-carboxylic acid 4-trifluoromethoxy-benzylamide], the IC50 in assay [1] and in assay [2] was above 1000 nM each time.
For the compound `CC(C)(O)C#Cc1ncc2sc(N3CCN(S(=O)(=O)c4ccc(OC(F)(F)F)cc4)[C@@H](C(=O)NCc4ccc(OC(F)(F)F)cc4)C3)nc2n1` [Example 994, (R)-4-[5-(3-hydroxy-3-methyl-but-1-ynyl)-thiazolo[4,5-d]pyrimidin-2-yl]-1-(4-trifluoromethoxy-benzenesulfonyl)-piperazine-2-carboxylic acid 4-trifluoromethoxy-benzylamide], the IC50 in assay [1] and in assay [2] was below 100 nM in each case.
Regarding `C#Cc1ncc2sc(N3CCN(S(=O)(=O)c4ccc(OC(F)(F)F)cc4)[C@@H](C(=O)NCc4ccc(OC(F)(F)F)cc4)C3)nc2n1` [Example 995, (R)-4-(5-ethynyl-thiazolo[4,5-d]pyrimidin-2-yl)-1-(4-trifluoromethoxy-benzenesulfonyl)-piperazine-2-carboxylic acid 4-trifluoromethoxy-benzylamide], the IC50 in assay [1] and in assay [2] was below 100 nM throughout.

For the origin of these results see patent US8017612B2, “Piperazine compound and use thereof as a HCV polymerase inhibitor” (priority 2006, dated 2011).
